Source: patent US9708293B2, “N-(pyridin-2-yl)pyrimidin-4-amine derivatives containing a sulfone group” (BAYER PHARMA AKTIENGESELLSCHAFT, priority 2012, dated 2017)

Columns and labels:
A2780 cells = assay: Proliferation assay, A2780; assay type: cell-based; conditions: Homo sapiens, A2780, 96 h; 4 days, crystal violet; read-out: Inhibition of A2780 cell proliferation IC50
Description: Cultivated tumour cells (HeLa, human cervical tumour cells, ATCC CCL-2; NCI-H460, human non-small cell lung carcinoma cells, ATCC HTB-177; A2780, human ovarian carcinoma cells, ECACC #93112519; DU 145, hormone-independent human prostate carcinoma cells, ATCC HTB-81; HeLa-MaTu-ADR, multidrug-resistant human cervical carcinoma cells, EPO-GmbH Berlin; Caco-2, human colorectal carcinoma cells, ATCC HTB-37; B16F10, mouse melanoma cells, ATCC CRL-6475) were plated at a density of 5,000 cells/well (DU145, HeLa-MaTu-ADR), 3,000 cells/well (NCI-H460, HeLa), 2,500 cells/well (A2780), 1,500 cells/well (Caco-2), or 1,000 cells/well (B16F10) in a 96-well multititer plate in 200 μL of their respective growth medium supplemented 10% fetal calf serum. […] Cell proliferation was determined by staining the cells with crystal violet: the cells were fixed by adding 20 μl/measuring point of an 11% glutaric aldehyde solution for 15 minutes at room temperature. […] The extinction was determined by photometry at a wavelength of 595 nm. The change of cell number, in percent, was calculated by normalization of the measured values to the extinction values of the zero-point plate (=0%) and the extinction of the untreated (0 μm) cells (=100%). […]

Caco-2 permeation assay = assay type: in vitro ADME; conditions: human, pH 7.2, Caco-2, test compound 2 μM
Description: 4. Caco-2 Permeation Assay:
Caco-2 cells (purchased from DSMZ Braunschweig, Germany) were seeded at a density of 4.5×10^4 cells per well on 24 well insert plates, 0.4 μm pore size, and grown for 15 days in DMEM medium supplemented with 10% fetal bovine serum, 1% GlutaMAX (100x, GIBCO), 100 U/mL penicillin, 100 μg/mL streptomycin (GIBCO) and 1% non essential amino acids (100×). Cells were maintained at 37° C. in a humified 5% CO2 atmosphere. Medium was changed every 2-3 day. Before running the permeation assay, the culture medium was replaced by a FCS-free hepes-carbonate transport buffer (pH 7.2). For assessment of monolayer integrity the transepithelial electrical resistance (TEER) was measured. Test compounds were predissolved in DMSO and added either to the apical or basolateral compartment in final concentration of 2 μM in transport buffer. Before and after 2h incubation at 37° C. samples were taken from both compartments. Analysis of compound content was done after precipitation with methanol by LC/MS/MS analysis. Permeability (Papp) was calculated in the apical to basolateral (A →B) and basolateral to apical (B→A) directions. The apparent permeability was calculated using following equation: Papp=(Vr/Po)(1/S)(P2/t)
Where Vr is the volume of medium in the receiver chamber, Po is the measured peak area or height of the test drug in the donor chamber at t=o, S the surface area of the monolayer, P2 is the measured peak area of the test drug in the acceptor chamber after 2h of incubation, and t is the incubation time. The efflux ratio basolateral (B) to apical (A) was calculated by dividing the Papp B-A by the Papp A-B. In addition the compound recovery was calculated. The following reference compounds were used for the classification of the permeability class: Antipyrine, Pyrazosin, Verapamil, Fluvastatin, Cimetidine, Ranitidine, Atenolol, Sulfasalazine.

MOLM13 cells = assay: Proliferation assay, MOLM-13; assay type: cell-based; conditions: Homo sapiens, 72-hour exposure, Cell Titre-Glo, read-out: Inhibition of MOLM13 cell proliferation IC50
Description: Non-adherent MOLM-13 human acute myeloid leukemia cells (DSMZ ACC 554) were seeded at a density of 5,000 cells/well in a 96-well multititer plate in 100 μL of growth medium supplemented 10% fetal calf serum. After 24 hours, cell viability of one plate (zero-point plate) was determined with the Cell Titre-Glo Luminescent Cell Viability Assay (Promega), while 50 μL of test compound containing medium was added to the wells of the other plates (final concentrations in the range of 0.001-10 μM and DMSO controls; the final concentration of the solvent dimethyl sulfoxide was 0.5%). Cell viability was assessed after 72-hour exposure with the Cell Titre-Glo Luminescent Cell Viability Assay (Promega). IC50 values (inhibitory concentration at 50% of maximal effect) were determined by means of a 4 parameter fit on measurement data which were normalized to vehicle (DMSO) treated cells (=100%) and measurement readings taken immediately before compound exposure (=0%).

Row | Compound | IC50 (A2780 cells) | Papp A→B at 2 h, 2 μM (Caco-2 permeation assay; 2h incubation, apical to basolateral, read-out: Papp A-B (Mari)) | Papp B→A at 2 h, 2 μM (Caco-2 permeation assay; 2h incubation, basolateral to apical, read-out: Papp B-A (Mari)) | efflux ratio at 2 h, 2 μM (Caco-2 permeation assay; Papp B-A / Papp A-B) | IC50 (MOLM13 cells)
1 | COc1cc(F)ccc1-c1cc(Nc2cc(CS(C)(=O)=O)ccn2)ncn1 [Example 1, 6-(4-Fluoro-2-methoxyphenyl)-N-{4-[(methylsulfonyl)methyl]pyridin-2-yl}pyrimidin-4-amine] | 65 nM | 17.8 ×10⁻⁶ cm/s | 19.1 ×10⁻⁶ cm/s | 1.1 | –
2 | COc1cc(F)ccc1-c1cc(Nc2cc(CS(C)(=O)=O)cc(C(F)(F)F)n2)ncn1 [Example 3, 6-(4-Fluoro-2-methoxyphenyl)-N-{4-[(methylsulfonyl)methyl]-6-(trifluoromethyl)pyridin-2-yl}pyrimidin-4-amine] | 14 nM | – | – | – | 18 nM
